Consider ten molecules from patent US12516053B2, “Bcl-2 inhibitors” (BEIGENE, LTD., priority 2019, dated 2026).

For one experiment, the target named is BA/F3-BCL-2 G101V cells (Homo sapiens, UniProt P10415, G101V, cells depend on it). Put plainly: BA/F3 cell proliferation assay, Bcl-2 G101V. Type of experiment: cell-based, Murine. Conditions: 24 hrs treatment, 3% FBS, CellTiter-Glo, geometric mean of 3 experiments; read-out: Cellular proliferation assay (IC50, nM) Bcl-2 G101V; BaF3 cell. The protocol:
(§1) BA/F3 cell Proliferation Assay:
(§2) The cells were treated with a 10-point dilution series of compounds for 24 hrs. After the compound treatment, 30 μl of CellTiter-Glo reagent was added in each well. The effects on proliferation were determined using Cell TiterGlo reagent (Promega) according to the manufacturer's instructions. Luminescent signals were measured using PHERAstar FS plate reader (BMG Labtech). ICS50 values for cell viability were determined with GraphPad Prism software and were the geometric mean of 3 independent experiments.

The target in the next experiment is BA/F3-BCL-2 cells (Homo sapiens, UniProt P10415). Put plainly: BA/F3 cell proliferation assay, BCL-2 wild type. The format is cell-based, Murine. Here is the method: as §1, §2
For experiment [1], the target named is recombinant human Bcl-2-G101V protein (Homo sapiens, UniProt P10415, G101V). Put plainly: Bcl-2-G101V TR-FRET assay. Type of experiment: binding. The text has this:
The IC50 for each compound was derived from fitting the data to the four-parameter logistic equation by Graphpad Prism software or Dotmatics.

In experiment [2] the target is Recombinant human Bcl-2 protein (Homo sapiens, UniProt P10415). Put plainly: Bcl-2 TR-FRET assay. The format is binding. The protocol:
Compounds disclosed herein were tested for blocking of Bcl-2 protein with its ligand in an assay based on Time-Resolved Fluorescence Resonance Energy Transfer (TR-FRET) methodology. Recombinant human 0.05 nM Bcl-2 protein was pre-incubated with a serial dilution of compounds disclosed herein (top final concentration is 1 uM or 0.1 uM or 0.02 uM or 0.01 uM, 10 points) at room temperature for 0.5 hour in an assay buffer containing 20 mM potassium phosphate buffer, pH 7.5, 50 mM NaCl, 1 mM EDTA, 0.05% Tween-20, 0.01% BSA. […] The inhibition percentage of Bcl-2 interaction with its ligand in presence of increasing concentrations of compounds was calculated based on the TR-FRET signals. The IC50 for each compound was derived from fitting the data to the four-parameter logistic equation by Graphpad Prism software or Dotmatics.

Experiment [3] relates to RS4;11 (BCL-2 dependent acute lymphoblastic leukemia cell line). Put plainly: RS4;11 cell proliferation assay. The format is cell-based. The settings on record: Homo sapiens, RS4-11, 48 hrs treatment, CellTiter-GLO, read-out: Cellular proliferation assay (IC50, nM) RS4. Here is the method: RS4;11 Cell Proliferation Assay:
Each compound was serially diluted with 1 μM as the maximum concentration. To test the apoptotic effect of the compounds, the cells were seeded at 50,000 in 180 μl per well in 96-well plates and treated with 10-point dilution series of each compound for 48 hrs at 37° C. Cell viability was assessed after the treatment using CellTiter-GLO luminescent assay (Promega) according to the manufacturer's recommendations. Briefly, 30 μl of CellTiter-GLO reagent was added into 200 μl of cell culture, Mixture was agitated on an orbital shaker for 5 mins to ensure cell lysis followed by 7 mins incubation at room temperature to allow development and stabilization of luminescent signals, which corresponded to quantity of ATP and thus the quantity of metabolically active cells. Luminescent signals were measured using PHERAstar FS reader (BMG). Mean IC50 values for cell viability were determined with GraphPad Prism software.

Experiment [4] concerns Molt-4 (Bcl-xL-dependent ALL cell line). Put plainly: Molt-4 cell proliferation assay. Type of experiment: cell-based. The settings on record: Homo sapiens, MOLT-4; CellTiter-GLO; read-out: Cellular proliferation assay (IC50, nM) Molt-4. From the text:
Molt-4 Cell Proliferation Assay:
Each compound was serially diluted with 10 1M as the maximum concentration. The anti-proliferative IC50s of these compounds were similarly determined as a percentage of viable cells upon treatment compared to the untreated control using CellTiter-GLO luminescent assay.

Where [5] appears, read: 24 hrs treatment, 3% FBS, CellTiter-Glo, geometric mean of 3 experiments; read-out: Cellular proliferation assay (IC50, nM) Bcl-2 WT; BaF3 cell.
Setting [6] is: TR-FRET, 0.1 nM Bcl-2-G101V, FITC labeled Bak peptide 5 nM, read-out: Biochemical assay (IC50, nM) Bcl-2 G101V.
Setting [7] is: TR-FRET, 0.05 nM Bcl-2, FITC labeled Bak peptide 0.5 nM, read-out: Biochemical assay (IC50, nM) Bcl-2 WT.

Like-named read-outs stand apart in the source and are kept apart here.

For the molecule `CC(C)c1ccccc1[C@@H]1CCCN1C1CC2(CCN(c3ccc(C(=O)NS(=O)(=O)c4cc5c(c([N+](=O)[O-])c4)N[C@H](C[C@H]4CC[C@H](O)CC4)CO5)c(Oc4cnc5[nH]ccc5c4)c3)CC2)C1` [Example A4, 2-((1H-pyrrolo[2,3-b]pyridin-5-yl)oxy)-N—(((R)-3-(((1R,4R)-4-hydroxycyclohexyl)methyl)-5-nitro-3,4-dihydro-2H-benzo[b][1,4]oxazin-7-yl)sulfonyl)-4-(2-((S)-2-(2-isopropylphenyl)pyrrolidin-1-yl)7-azaspiro[3,5]nonan-7-yl)benzamide], on BA/F3-BCL-2 G101V cells, the GI50 amounted to 9.8 nM. Also, the IC50 at BA/F3-BCL-2 cells (setting [5]) is 0.3 nM; in experiment [1] (setting [6]), 0.86 nM; in experiment [2] (setting [7]) it was 0.025 nM; in experiment [3], 0.47 nM; in experiment [4], more than 10000 nM.

As to `CC(C)c1ccccc1[C@@H]1CCCN1C1CC2(C1)CN(c1ccc(C(=O)NS(=O)(=O)c3ccc(NCC4(F)CCOCC4)c([N+](=O)[O-])c3)c(N3CCOc4nc5[nH]ccc5cc43)c1)C2` [Example B12, (S)-2-(2,3-dihydropyrrolo[3′,2′:5,6]pyrido[2,3-b][1,4]oxazin-1(6H)-yl)-N-((4-(((4-fluorotetrahydro-2H-pyran-4-yl)methyl)amino)-3-nitrophenyl)sulfonyl)-4-(6-(2-(2-isopropylphenyl)pyrrolidin-1-yl)-2-azaspiro[3.3]heptan-2-yl)benzamide], the IC50 was 3.7 nM in experiment [1] (setting [6]), 0.058 nM in experiment [2] (setting [7]), 3.6 nM in experiment [3] and 7310 nM in experiment [4].

With `CC(C)c1ccccc1[C@@H]1CCCN1C1CC2(C1)CN(c1ccc(C(=O)NS(=O)(=O)c3ccc(NC[C@H]4CC[C@](C)(O)CC4)c([N+](=O)[O-])c3)c(N3CCCOc4nc5[nH]ccc5cc43)c1)C2` [Example B13, 2-(3,4-dihydro-2H-pyrrolo[3′,2′:5,6]pyrido[2,3-b][1,4]oxazepin-1(7H)-yl)-N-((4-((((1r,4r)-4-hydroxy-4-methylcyclohexyl)methyl)amino)-3-nitrophenyl)sulfonyl)-4-(6-((S)-2-(2-isopropylphenyl)pyrrolidin-1-yl)-2-azaspiro[3,3]heptan-2-yl)benzamide], on BA/F3-BCL-2 G101V cells, the GI50 amounted to 39.1 nM. The IC50 on BA/F3-BCL-2 cells (setting [5]) was 2.8 nM; in experiment [1] (setting [6]), 2.4 nM; in experiment [2] (setting [7]) it was 0.094 nM; in experiment [3] it was 5.5 nM; in experiment [4], more than 10000 nM.

`CC1(C)CCC(CN2CCN(c3ccc(C(=O)NS(=O)(=O)c4ccc(NCC5CCOCC5)c([N+](=O)[O-])c4)c(Oc4cnc5[nH]ccc5c4)c3)CC2)=C(c2ccc(Cl)cc2)C1` [ABT-199, Venetoclax, reference compound]: the IC50 is 4.2 nM in experiment [3] and 2570 nM in experiment [4].

Turning to `CC(C)c1ccccc1[C@@H]1CCCN1C1CC2(C1)CN(c1ccc(C(=O)NS(=O)(=O)c3ccc(NC[C@H]4CC[C@](C)(O)CC4)c([N+](=O)[O-])c3)c(N3CCOc4nc5[nH]ccc5cc43)c1)C2` [Example B11, 2-(2,3-dihydropyrrolo[3′,2′:5,6]pyrido[2,3-b][1,4]oxazin-1(6H)-yl)-N-((4-((((1R,4R)-4-hydroxy-4-methylcyclohexyl)methyl)amino)-3-nitrophenyl)sulfonyl)-4-(6-((S)-2-(2-isopropylphenyl)pyrrolidin-1-yl)-2-azaspiro[3.3]heptan-2-yl)benzamide], the IC50 in experiment [1] (setting [6]) was 2.8 nM; in experiment [2] (setting [7]), 0.041 nM; in experiment [3], 3.2 nM; in experiment [4], more than 10000 nM.

`CC(C)c1ccccc1[C@@H]1CCCN1C1CC2(CCN(c3ccc(C(=O)NS(=O)(=O)c4ccc(NC[C@H]5CC[C@](C)(O)CC5)c([N+](=O)[O-])c4)c(N4c5cc6cc[nH]c6nc5OCC4C)c3)CC2)C1` (stereo partly drawn) [Example B10, N-((4-((((1R,4R)-4-hydroxy-4-methylcyclohexyl)methyl)amino)-3-nitrophenyl)sulfonyl)-4-(2-((S)-2-(2-isopropylphenyl)pyrrolidin-1-yl)-7-azaspiro[3,5]nonan-7-yl)-2-(2-methyl-2,3-dihydropyrrolo[3′2′:5,6]pyrido[2,3-b][1,4]oxazin-1(6H)-yl)benzamide]: the IC50 in experiment [1] (setting [6]) is 1.6 nM; in experiment [2] (setting [7]) it was 0.04 nM; in experiment [3], 1 nM; in experiment [4] it was more than 10000 nM.

`CC(C)c1ccccc1[C@@H]1CCCN1C1CC2(C1)CN(c1ccc(C(=O)NS(=O)(=O)c3ccc(NC[C@H]4COCCO4)c([N+](=O)[O-])c3)c(N3CCCOc4nc5[nH]ccc5cc43)c1)C2` [Example B15, N-((4-((((S)-1,4-dioxan-2-yl)methyl)amino)-3-nitrophenyl)sulfonyl)-2-(3,4-dihydro-2H-pyrrolo[3′,2′:5,6]pyrido[2,3-b][1,4]oxazepin-1(7H)-yl)-4-(6-((S)-2-(2-isopropylphenyl)pyrrolidin-1-yl)-2-azaspiro[3,3]heptan-2-yl)benzamide]: the IC50 in experiment [1] (setting [6]) was 5.2 nM; in experiment [2] (setting [7]) it was 0.14 nM; in experiment [3], 8 nM; in experiment [4], more than 10000 nM.

Turning to `[2H]C1([2H])CC2(CC(N3CCC[C@H]3c3ccccc3C(C)C)C2)CC([2H])([2H])N1c1ccc(C(=O)NS(=O)(=O)c2cc3c(c([N+](=O)[O-])c2)N[C@H](C[C@H]2CC[C@H](O)CC2)CO3)c(Oc2cnc3[nH]ccc3c2)c1` [Example A6, 2-((1H-pyrrolo[2,3-b]pyridin-5-yl)oxy)-N—(((R)-3-(((1r,4R)-4-hydroxycyclohexyl)methyl)-5-nitro-3,4-dihydro-2H-benzo[b][1,4]oxazin-7-yl)sulfonyl)-4-(2-((S)-2-(2-isopropylphenyl)pyrrolidin-1-yl)-7-azaspiro[3,5]nonan-7-yl-6,6,8,8-d4)benzamide], the GI50 on BA/F3-BCL-2 G101V cells was 21.1 nM. Also, the IC50 at BA/F3-BCL-2 cells (read-out: Cellular proliferation assay (IC50, nM) Bcl-2 WT; BaF3 cell; 24 hrs treatment, 3% FBS, CellTiter-Glo, geometric mean of 3 experiments) was determined as 0.25 nM; in experiment [1] it was 0.51 nM; in experiment [2], 0.021 nM; in experiment [3] it was 1.3 nM.

Take `[2H]C1([2H])CCC([2H])(c2ccccc2C(C)C)N1C1CC2(CCN(c3ccc(C(=O)NS(=O)(=O)c4cc5c(c([N+](=O)[O-])c4)N[C@H](C[C@H]4CC[C@H](O)CC4)CO5)c(Oc4cnc5[nH]ccc5c4)c3)CC2)C1` (stereo partly drawn) [Example A7, 2-((1H-pyrrolo[2,3-b]pyridin-5-yl)oxy)-N—(((R)-3-(((1r,4R)-4-hydroxycyclohexyl)methyl)-5-nitro-3,4-dihydro-2H-benzo[b][1,4]oxazin-7-yl)sulfonyl)-4-(2-(2-(2-isopropylphenyl)pyrrolidin-1-yl-2,5,5-d3)-7-azaspiro[3,5]nonan-7-v)benzamide]: the GI50 at BA/F3-BCL-2 G101V cells came out at 35.8 nM. The IC50 on BA/F3-BCL-2 cells (setting [5]) is 0.38 nM; in experiment [1] (setting [6]) it was 0.92 nM; in experiment [2] (setting [7]), 0.021 nM; in experiment [3], 1.5 nM.

Regarding `CC(C)c1ccccc1[C@@H]1CCCN1C1CC2(CCN(c3ccc(C(=O)NS(=O)(=O)c4ccc(NCC5(F)CCOCC5)c([N+](=O)[O-])c4)c(N4CCOc5nc6[nH]ccc6cc54)c3)CC2)C1` [Example B4, (S)-2-(2,3-dihydropyrrolo[3′,2′:5,6]pyrido[2,3-b][1,4]oxazin-1(6H)-yl)-N-((4-(((4-fluorotetrahydro-2H-pyran-4-yl)methyl)amino)-3-nitrophenyl)sulfonyl)-4-(2-(2-(2-isopropylphenyl)pyrrolidin-1-yl)-7-azaspiro[3,5]nonan-7-yl)benzamide], the IC50 in experiment [1] (setting [6]) was found to be 1.2 nM; in experiment [2] (setting [7]), 0.018 nM; in experiment [3], 0.58 nM; in experiment [4], 1420 nM.
